Read-outs that look alike come from different tables or passages of the source.

This test deals with NK Falkone 2015 corn seeds. As to the kind of experiment: Corn seed germination under cold stress (Example B1). To be noted: Zea mays, cold stress 15° C.; for change in vivo at 2 µM: Rate 2 μM; for change in vivo at 10 µM: Rate 10 μM; for change in vivo at 50 µM: Rate 50 μM; for change in vivo at 250 µM: Rate 250 μM; for change in vivo at 0.4 µM: Rate 0.4 μM. In kind it is in vivo. Here is the method:
The effect of compounds of formula (I) on the germination of NK Falkone 2015 corn seeds under cold stress was evaluated as follows. NK Falkone corn seeds were sorted by size using 2 sieves, one excluding very big seeds and the other with round holes of 8 to 9 mm diameter. The seeds retained by the latter sieve were used for the germination test. The corn seeds were placed in 24 well plates (each plate was considered as one experimental unit or replicate). Germination was initiated by the addition of 250 μl of distilled water containing 0.5% DMSO per well as a means for compound solubilization. 8 replicates (ie, 8 plates) were used for each treatment characterization. Plates were sealed using seal foil (Polyolefin Art. Nr. 900320) from HJ-BIOANALYTIK. All plates were placed horizontally on trolleys in a climatic chamber at 15° C. The experiment was laid out in a completely randomized design in climatic chamber with 75% Relative Humidity. Foils were pierced, one hole per well using a syringe after 72 hours for experiments performed at 15° C.
Germination was followed over time by taking photographs at different time points. Image analysis was performed automatically with a macro which was developed using the Image J software. A dynamic analysis of germination was carried out by fitting a logistic curve. Three parameters were calculated from the logistic curve: the T50; the slope and the plateau. All three parameters have a high agronomical relevance and are key requirements to ensure a good early crop-establishment. All the values are expressed as percentages compared to an untreated control. All the three parameters are calculated considering 8 replicates and the kinetic parameters are separately determined for each germination curve. Data in bold indicate germination enhancing statistically significant differences between treated seeds and untreated control (p<0.05). The T50 corresponds to the time needed for half of the seed population to germinate. Higher negative %-values indicate faster germination. The slope indicates how synchronous the germination of the seed population is. Positive values indicate steeper curve; the steeper the curve, the better and more uniform the germination is.

Setting [1] is: slope of logistic germination curve, read-out: Slope (% vs control).
[2] abbreviates: time for half of seeds to germinate, control T50 = 110 hours, read-out: T50 (% vs control).

With `CCOC(=O)/C(=C/OC1C=C(C)C(=O)O1)C1CCc2ccccc21` (stereo not shown) [Compound I-1], under setting [1], the change in vivo at 2 µM was 8.1%, the change in vivo at 10 µM is 10%, the change in vivo at 50 µM worked out at 27.9% and the change in vivo at 250 µM was found to be 142%. For the same compound, under setting [2], the change in vivo at 2 µM is -0.5%, the change in vivo at 10 µM came out at 1.6%, the change in vivo at 50 µM is -2.8% and the change in vivo at 250 µM is -7.2%.

On to `CCOC(=O)/C(=C/OC1OC(=O)C(C)=C1C)C1CCc2ccccc21` (stereo not shown) [Compound I-2], for which, under setting [1], the change in vivo at 2 µM is -11.8%, the change in vivo at 10 µM came to 18.1%, the change in vivo at 50 µM came out at 47% and the change in vivo at 250 µM turned out to be 121%. Further, under setting [2], the change in vivo at 2 µM was found to be 2.3%, the change in vivo at 10 µM is -3%, the change in vivo at 50 µM was -6.2% and the change in vivo at 250 µM was -10.1%.

On to `CCOC(=O)/C(=C/OC1C=C(C)C(=O)N1c1cc(C(F)(F)F)cc(C(F)(F)F)c1)C1CCc2ccccc21` (stereo not shown) [Compound I-7], for which, under setting [1], the change in vivo at 2 µM amounted to 63.9%, the change in vivo at 10 µM is 69.8%, the change in vivo at 50 µM came out at 78.8% and the change in vivo at 250 µM was 11.3%. Under setting [2], the change in vivo at 2 µM was -3.4%, the change in vivo at 10 µM was -3.5%, the change in vivo at 50 µM is -6.6% and the change in vivo at 250 µM was -1.8%.

As to `COC(=O)/C(=C/OC1C=C(C)C(=O)O1)C1CCc2ccccc21` (stereo not shown) [Compound I-10], under setting [1], the change in vivo at 2 µM was determined as 8.2%, the change in vivo at 10 µM came to 10.7%, the change in vivo at 50 µM was 30.3% and the change in vivo at 250 µM was 82.5%. Moreover, under setting [2], the change in vivo at 2 µM is -0.9%, the change in vivo at 10 µM is -0.8%, the change in vivo at 50 µM was -3.3% and the change in vivo at 250 µM was -7.4%.

On to `COC(=O)/C(=C/OC1OC(=O)C(C)=C1C)C1CCc2ccccc21` (stereo not shown) [Compound I-11], for which, under setting [1], the change in vivo at 2 µM stood at 11.4%, the change in vivo at 10 µM amounted to 7.4%, the change in vivo at 50 µM turned out to be 20.1% and the change in vivo at 250 µM turned out to be 89.6%. Further, under setting [2], the change in vivo at 2 µM was -1%, the change in vivo at 10 µM stood at 0.2%, the change in vivo at 50 µM is -5.1% and the change in vivo at 250 µM was -6.9%.

For `CNC(=O)/C(=C/OC1C=C(C)C(=O)O1)C1CCc2ccccc21` (stereo not shown) [Compound I-37-1], under setting [1], the change in vivo at 2 µM was 10.8%, the change in vivo at 10 µM was -15.7%, the change in vivo at 50 µM is 5.2% and the change in vivo at 250 µM stood at 51.7%. Further, under setting [2], the change in vivo at 2 µM was -1.3%, the change in vivo at 10 µM is -2.5%, the change in vivo at 50 µM is -2.6% and the change in vivo at 250 µM is -4.6%.

`CNC(=O)/C(=C/OC1C=C(C)C(=O)N1c1cc(C(F)(F)F)cc(C(F)(F)F)c1)C1CCc2ccccc21` (stereo not shown) [Compound I-55-1]: under setting [1], the change in vivo at 2 µM was -8.1%, the change in vivo at 10 µM turned out to be 3.8%, the change in vivo at 50 µM was 61.1% and the change in vivo at 250 µM came out at 89.8%. For the same compound, under setting [2], the change in vivo at 2 µM was 1.7%, the change in vivo at 10 µM was -1.4%, the change in vivo at 50 µM was -6.8% and the change in vivo at 250 µM was -10.6%.

For the compound `CCOC(=O)/C(=C/OC1C=C(C)C(=O)O1)C1CCc2cc(OC)c(OC)cc21` (stereo not shown) [Compound I-64], under setting [1], the change in vivo at 2 µM was found to be 1.1%, the change in vivo at 10 µM was -1.6%, the change in vivo at 50 µM came to 27.9% and the change in vivo at 250 µM amounted to 83.8%. For the same compound, under setting [2], the change in vivo at 2 µM is -1.4%, the change in vivo at 10 µM is -3.2%, the change in vivo at 50 µM was -4.6% and the change in vivo at 250 µM was -10.7%.

For `CCOC(=O)/C(=C/OC1OC(=O)C(C)=C1C)C1CCc2cc(OC)c(OC)cc21` (stereo not shown) [Compound I-65], under setting [1], the change in vivo at 2 µM was 1%, the change in vivo at 10 µM stood at 18.8%, the change in vivo at 50 µM turned out to be 23% and the change in vivo at 250 µM came out at 123%. Further, under setting [2], the change in vivo at 2 µM was -0.9%, the change in vivo at 10 µM is -3.1%, the change in vivo at 50 µM is -2.6% and the change in vivo at 250 µM was -12.6%.

On to `CCOC(=O)/C(=C/OC1C=C(C)C(=O)O1)C1CCc2cc3c(cc21)OCO3` (stereo not shown) [Compound I-66], for which, under setting [1], the change in vivo at 2 µM was found to be 22.6%, the change in vivo at 10 µM was determined as 2.9%, the change in vivo at 50 µM amounted to 34.5% and the change in vivo at 250 µM is 31.6%. Further, under setting [2], the change in vivo at 2 µM was -5.2%, the change in vivo at 10 µM is -2.9%, the change in vivo at 50 µM was -5.1% and the change in vivo at 250 µM was -5.8%.

In the case of `CCOC(=O)/C(=C/OC1C=C(C)C(=O)O1)C1CCc2c(C)cccc21` (stereo not shown) [Compound I-68], under setting [1], the change in vivo at 2 µM turned out to be 23.4%, the change in vivo at 10 µM was determined as 3.8%, the change in vivo at 50 µM turned out to be 44.7% and the change in vivo at 250 µM was 113%. For the same compound, under setting [2], the change in vivo at 2 µM is -1.2%, the change in vivo at 10 µM was -0.6%, the change in vivo at 50 µM is -5.7% and the change in vivo at 250 µM is -6.8%.

`CCOC(=O)/C(=C/OC1C=C(C)C(=O)O1)C1CCc2c1cccc2C(F)(F)F` (stereo not shown) [Compound I-70]: under setting [1], the change in vivo at 2 µM is 9%, the change in vivo at 10 µM stood at 18.4%, the change in vivo at 50 µM is 87.9% and the change in vivo at 250 µM came to 115%. Under setting [2], the change in vivo at 2 µM is -2.5%, the change in vivo at 10 µM is -0.2%, the change in vivo at 50 µM is -6.8% and the change in vivo at 250 µM was -8.6%.

As to `CCOC(=O)/C(=C/OC1OC(=O)C(C)=C1C)C1CCc2ccc(C(F)(F)F)cc21` (stereo not shown) [Compound I-73], under setting [1], the change in vivo at 2 µM was -1.1%, the change in vivo at 10 µM was 14.2%, the change in vivo at 50 µM stood at 57.8% and the change in vivo at 250 µM was 54.1%. For the same compound, under setting [2], the change in vivo at 2 µM was -3.5%, the change in vivo at 10 µM is -6.3%, the change in vivo at 50 µM was -7.8% and the change in vivo at 250 µM is -9.2%.

With `CCOC(=O)/C(=C/OC1OC(=O)C(C)=C1C)C1CCCc2ccccc21` (stereo not shown) [Compound I-75], under setting [1], the change in vivo at 2 µM is 4.9%, the change in vivo at 10 µM amounted to 5.6%, the change in vivo at 50 µM stood at 58.4% and the change in vivo at 250 µM was 44.2%. Also, under setting [2], the change in vivo at 2 µM is -3.5%, the change in vivo at 10 µM is -2.6%, the change in vivo at 50 µM was -6.5% and the change in vivo at 250 µM was -5%.

As for `CCOC(=O)/C(=C/OC1C=C(C)C(=O)O1)C1Cc2ccccc21` (stereo not shown) [Compound I-76], under setting [1], the change in vivo at 0.4 µM is -5.6%, the change in vivo at 2 µM is -5%, the change in vivo at 10 µM amounted to 50.6% and the change in vivo at 50 µM was determined as 122%. Also, under setting [2], the change in vivo at 0.4 µM is -0.5%, the change in vivo at 2 µM was -0.7%, the change in vivo at 10 µM was -6.4% and the change in vivo at 50 µM was -8.8%.

For the compound `CCOC(=O)/C(=C/OC1OC(=O)C(C)=C1C)C1CCc2ccsc21` (stereo not shown) [Compound I-83], under setting [1], the change in vivo at 2 µM worked out at 6.5%, the change in vivo at 10 µM is 34.1%, the change in vivo at 50 µM is 32.6% and the change in vivo at 250 µM is 157%. Under setting [2], the change in vivo at 2 µM is -3%, the change in vivo at 10 µM was -2.2%, the change in vivo at 50 µM was -4.8% and the change in vivo at 250 µM was -8.6%.

With `CCOC(=O)/C(=C/OC1C=C(C)C(=O)O1)C1CCC[C@@]2(C)CCC12` (stereo partly shown) [Compound I-86], under setting [1], the change in vivo at 2 µM was found to be 17.1%, the change in vivo at 10 µM came out at 20.2%, the change in vivo at 50 µM came out at 138% and the change in vivo at 250 µM is 150%. In addition, under setting [2], the change in vivo at 2 µM was found to be 0.2%, the change in vivo at 10 µM was -2.7%, the change in vivo at 50 µM is -9.7% and the change in vivo at 250 µM was -11.2%.

For the origin of these results see US11136292B2, “Plant growth regulator compounds” (SYNGENTA PARTICIPATIONS AG, priority 2016, dated 2021).
